{"source": "paper PMC5823406", "about": "“Vehicle development, pharmacokinetics and toxicity of the anti-invasive agent 4-fluoro-3’,4’,5’-trimethoxychalcone in rodents” (PLoS ONE, 2018)", "key": {"SK-OV-3": {"test_system": "SK-OV-3", "parameters": "method as in PMID 26204510", "details": "read-out: IC50 in Matrigel invasion assay (SK-OV-3); cited from earlier work"}, "CYP 1A2": {"target": "T1, CYP 1A2 (Homo sapiens, UniProt P05177)", "T1 sequence (P05177 1-516)": "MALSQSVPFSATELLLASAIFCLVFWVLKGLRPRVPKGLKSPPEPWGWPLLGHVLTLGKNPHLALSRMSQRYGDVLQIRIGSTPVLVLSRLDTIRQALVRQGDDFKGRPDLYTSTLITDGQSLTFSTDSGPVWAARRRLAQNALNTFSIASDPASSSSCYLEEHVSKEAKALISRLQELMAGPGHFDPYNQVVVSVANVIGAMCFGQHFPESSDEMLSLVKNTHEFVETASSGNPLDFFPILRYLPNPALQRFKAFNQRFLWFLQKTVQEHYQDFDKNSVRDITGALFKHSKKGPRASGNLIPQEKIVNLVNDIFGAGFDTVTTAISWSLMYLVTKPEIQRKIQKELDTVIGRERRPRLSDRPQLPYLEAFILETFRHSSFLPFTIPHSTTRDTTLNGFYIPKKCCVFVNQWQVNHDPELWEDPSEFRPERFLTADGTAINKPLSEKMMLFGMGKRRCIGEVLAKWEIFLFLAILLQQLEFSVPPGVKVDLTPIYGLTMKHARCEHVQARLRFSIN", "experiment": "CYP inhibition 1A2 (CEC substrate)", "format": "in vitro ADME", "details": "10 μM", "source_text": "(§1) Table 3 In vitro physicochemical, stability and metabolism data. | column: Value"}, "Whole blood stability": {"experiment": "Whole blood stability", "format": "in vitro ADME, rat", "details": "for half-life at 1 μM: male, Sprague-Dawley, rat", "description": "C16 (1 μM) or vehicle (DMSO) were incubated with fresh rat blood (Sprague Dawley, male) at 37°C at 5 time points in duplicate over a 120-min period. The final DMSO concentration in the incubation was 0.25%. Reactions were terminated following 0, 15, 30, 60 and 120 min by acetonitrile containing internal standard. The sampling plate was centrifuged (3000 rpm, 45 min, 4 °C) and the supernatants from each time point analyzed for parent compound by HPLC-MS/MS. The percentage of parent compound remaining at each time point relative to the 0-min sample was then calculated from HPLC-MS/MS peak area ratios (compound peak area/internal standard peak area).\nC. Stability and metabolism\nFor details on ADME experiments not included underneath , please consult ref. [1].\nC.A. Whole blood stability\nColumn: Kinetex XB-C18 column, 2.6 µm (150 x2.1 mm)\nMobile phase A: H2O + 0.1% v/v Formic Acid\nMobile phase B: MeCN + 0.1% v/v Formic Acid\nAutosampler syringe volume: 100 µL\nWeak wash: MeOH:H2O 1:9 v/v\nStrong wash: MeOH:H2O 95:5 v/v\nTable K. Gradient program.\nMass spectrometric conditions\nModel: AB Sciex API5500 QTrap\nMode: Multiple ion monitoring (MIM)\nTable L. MIM (parent to parent transitions).\nThe areas and percentages for the parent and metabolites have been calculated using MIM data where parent to parent transitions have been used, and assume that each metabolite has the same point of ionisation and the sensitivity of the metabolite has not been affected by the biotransformation."}, "Caco-2": {"test_system": "Caco-2", "experiment": "Caco-2 permeability and recovery", "format": "in vitro ADME", "details": "Caco-2, pH 7.4/7.4; 10 μM", "source_text": "as §1"}}, "note": "Like-named read-outs stand apart in the source and are kept apart here.", "data": [{"smiles": "COc1cc(C(=O)/C=C/c2ccc(F)cc2)cc(OC)c1OC", "note": "[C16, 4-fluoro-3’,4’,5’-trimethoxychalcone]", "values": [{"measurement": "IC50", "setting": "SK-OV-3", "result": "< 100", "unit": "nM"}, {"measurement": "CYP inhibition 1A2 (CEC substrate)", "setting": "CYP 1A2", "result": "36 % inhibition of control"}, {"measurement": "remaining at 15 min, 1 µM", "setting": "Whole blood stability; fresh whole blood, male Sprague-Dawley rat blood, 15 min, read-out: Compound remaining (% of 0 min)", "result": 16.5, "unit": "%"}, {"measurement": "remaining at 30 min, 1 µM", "setting": "Whole blood stability; fresh whole blood, male Sprague-Dawley rat blood, 30 min, read-out: Compound remaining (% of 0 min)", "result": 13.8, "unit": "%"}, {"measurement": "remaining at 60 min, 1 µM", "setting": "Whole blood stability; fresh whole blood, male Sprague-Dawley rat blood, 60 min, read-out: Compound remaining (% of 0 min)", "result": 10.6, "unit": "%"}, {"measurement": "remaining at 120 min, 1 µM", "setting": "Whole blood stability; fresh whole blood, male Sprague-Dawley rat blood, 120 min, read-out: Compound remaining (% of 0 min)", "result": 7, "unit": "%"}, {"measurement": "Intrinsic clearance", "setting": "Whole blood stability; male Sprague-Dawley rat blood, Both Isomers integrated", "result": 120, "unit": "µL/min/mL blood"}, {"measurement": "half-life at 1 μM", "setting": "Whole blood stability; fresh whole blood, blood (rat, Sprague-Dawley), 1 μM, read-out: Half-life", "result": 6, "unit": "min"}, {"measurement": "half-life at 1 μM", "setting": "Whole blood stability; fresh whole blood, male Sprague-Dawley rat blood, Both Isomers integrated, read-out: t1/2", "result": 5.76, "unit": "min"}, {"measurement": "half-life at 1 μM", "setting": "Whole blood stability; fresh whole blood, male Sprague-Dawley rat blood, E-isomer only, read-out: t1/2", "result": 8.06, "unit": "min"}, {"measurement": "Permeability A-B", "setting": "Caco-2", "result": "10.4 10^−6 cm/s"}, {"measurement": "Permeability A-B: recovery", "setting": "Caco-2", "result": 17, "unit": "%"}, {"measurement": "Permeability B-A", "setting": "Caco-2", "result": "4.9 10^−6 cm/s"}, {"measurement": "Permeability B-A: recovery", "setting": "Caco-2", "result": 66, "unit": "%"}]}]}
